Holding throughout (type): cell-based
The target in one assay is T1, human TLR7 (Homo sapiens, UniProt Q9NYK1).
T1 construct: host or cells: HEK293
T1 sequence (Q9NYK1 27-1049): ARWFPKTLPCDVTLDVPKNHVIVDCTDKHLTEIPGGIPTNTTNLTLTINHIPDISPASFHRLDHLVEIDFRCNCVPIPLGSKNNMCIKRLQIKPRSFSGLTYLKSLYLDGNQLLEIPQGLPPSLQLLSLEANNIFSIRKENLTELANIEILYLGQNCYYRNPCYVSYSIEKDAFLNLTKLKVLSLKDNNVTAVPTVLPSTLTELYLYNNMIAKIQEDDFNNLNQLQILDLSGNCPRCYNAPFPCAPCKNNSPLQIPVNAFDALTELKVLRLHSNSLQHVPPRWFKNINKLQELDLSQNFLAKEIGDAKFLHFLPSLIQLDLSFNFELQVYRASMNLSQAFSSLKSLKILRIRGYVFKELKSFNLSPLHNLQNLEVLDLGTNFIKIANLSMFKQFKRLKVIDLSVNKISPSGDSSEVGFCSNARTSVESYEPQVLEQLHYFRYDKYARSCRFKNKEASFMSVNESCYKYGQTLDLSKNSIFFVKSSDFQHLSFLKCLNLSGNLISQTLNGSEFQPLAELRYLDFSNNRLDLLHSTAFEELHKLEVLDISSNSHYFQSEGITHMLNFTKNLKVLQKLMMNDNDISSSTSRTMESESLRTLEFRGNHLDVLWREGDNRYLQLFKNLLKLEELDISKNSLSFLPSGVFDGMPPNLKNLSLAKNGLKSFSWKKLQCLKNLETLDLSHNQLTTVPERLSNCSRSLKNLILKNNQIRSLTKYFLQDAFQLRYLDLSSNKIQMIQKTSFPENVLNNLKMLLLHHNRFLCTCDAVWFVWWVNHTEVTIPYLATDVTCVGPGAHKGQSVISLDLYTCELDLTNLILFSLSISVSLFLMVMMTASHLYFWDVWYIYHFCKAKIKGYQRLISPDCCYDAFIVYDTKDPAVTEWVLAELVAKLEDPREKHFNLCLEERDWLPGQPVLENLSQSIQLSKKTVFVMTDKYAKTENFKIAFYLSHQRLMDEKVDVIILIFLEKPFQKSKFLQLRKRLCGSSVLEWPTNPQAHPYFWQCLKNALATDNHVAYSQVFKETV
Kind of assay: HEK293-humanTLR7 SEAP reporter assay (Example 8). Conditions: HEK293-hTLR7 SEAP reporter cells, 24 hrs. The protocol:
(§1) In this example, the in vitro activity of compounds to activate human TLR7 (or human TLR8 or mouse TLR7) pathway was evaluated on HEK293 reporter cells transfected with human TLR7 (or human TLR8 or mouse TLR7) and an inducible SEAP (secreted embryonic alkaline phosphatase) reporter gene. The SEAP reporter gene is placed under the control of the IFN-β minimal promoter fused to five NF-κB and AP-1-binding sites. Stimulation with a TLR7 agonist activates NF-κB and AP-1 which induces the production of SEAP. Levels of SEAP were determined by HEK-Blue Detection medium.
(§2) The in vitro activity of compounds on TLR7 (human and mouse) and TLR8 (human only) reporter cell lines was assessed as follows. 5-(2-methoxy-4-(piperazin-1-ylmethyl)benzyl)-N4-pentyl-5H-pyrrolo[3,2-d]pyrimidine-2,4-diamine (Compound 1) is a compound used for comparison and has the structure shown below:
(§3) HEK293-humanTLR7 (hTLR7), HEK293-mouseTLR7 (mTLR7) and HEK293-humanTLR8 (hTLR8) reporter cell lines were purchased from Invivogen and cell lines were maintained in the manufacturer's recommended culture medium with required supplemental antibiotics. On the day of assay, the cells were harvested with Accutase and counted by the Vi-CELL Cell Viability Analyzers. Cells were resuspended in HEK blue detection medium and a total of 10,000 cells were seeded in each well of a 384-well flat bottom plate. Serial dilutions of test compounds (1:4 serial dilution starting from 5 μM) were added into treatment wells and assay plates were cultured at 37° C. in a CO2 incubator for 24 hrs. The plates were then read by spectrophotometry at 640 nm. Data was fitted with non-linear regression analysis, using a log(inhibitor) vs. response-variable slope, 3-parameter fit with GraphPad Prism. There result was reported in Table 1 as EC50 (the midpoint of the curve, or concentration at which 50% of the maximum effect was observed).
A general note: Reporter assays use an easily measured gene product as a stand-in for the process of interest.

For a further assay, the target named is T2, human TLR8 (Homo sapiens, UniProt Q9NR97).
T2 construct: host or cells: HEK293
T2 sequence (Q9NR97 27-1041): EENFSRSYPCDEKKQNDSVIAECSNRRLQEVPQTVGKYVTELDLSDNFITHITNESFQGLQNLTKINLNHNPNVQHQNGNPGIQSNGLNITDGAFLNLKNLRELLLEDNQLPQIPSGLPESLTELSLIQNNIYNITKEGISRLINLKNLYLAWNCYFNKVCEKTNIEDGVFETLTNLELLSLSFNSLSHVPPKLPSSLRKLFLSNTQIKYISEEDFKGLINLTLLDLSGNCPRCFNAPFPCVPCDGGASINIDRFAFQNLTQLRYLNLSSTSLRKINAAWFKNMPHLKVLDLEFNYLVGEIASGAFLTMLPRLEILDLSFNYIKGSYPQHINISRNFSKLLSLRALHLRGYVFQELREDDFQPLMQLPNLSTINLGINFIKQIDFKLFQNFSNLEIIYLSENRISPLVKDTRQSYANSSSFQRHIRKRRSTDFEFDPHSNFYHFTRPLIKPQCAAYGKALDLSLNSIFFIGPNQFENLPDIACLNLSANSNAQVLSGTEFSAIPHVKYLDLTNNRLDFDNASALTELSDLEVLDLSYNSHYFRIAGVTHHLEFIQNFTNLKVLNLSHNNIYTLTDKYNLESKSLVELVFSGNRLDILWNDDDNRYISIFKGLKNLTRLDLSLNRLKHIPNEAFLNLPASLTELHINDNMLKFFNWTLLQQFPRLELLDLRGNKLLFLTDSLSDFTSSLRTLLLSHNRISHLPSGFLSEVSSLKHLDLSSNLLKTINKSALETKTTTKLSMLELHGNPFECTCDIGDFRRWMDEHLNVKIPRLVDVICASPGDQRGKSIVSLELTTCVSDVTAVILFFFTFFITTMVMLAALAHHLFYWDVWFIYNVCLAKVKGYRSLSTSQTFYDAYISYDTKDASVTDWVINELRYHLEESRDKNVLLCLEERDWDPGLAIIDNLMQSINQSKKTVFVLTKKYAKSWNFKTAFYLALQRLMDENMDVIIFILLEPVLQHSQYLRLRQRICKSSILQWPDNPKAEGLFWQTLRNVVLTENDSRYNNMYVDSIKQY
Kind of assay: HEK293-humanTLR8 SEAP reporter assay (Example 8). Conditions: HEK293-hTLR8 SEAP reporter cells, 24 hrs. The procedure: as §1, §2, §3

Another assay has as its target T3, mouse TLR7 (Mus musculus, UniProt P58681).
T3 construct: host or cells: HEK293
T3 sequence (P58681 27-1050): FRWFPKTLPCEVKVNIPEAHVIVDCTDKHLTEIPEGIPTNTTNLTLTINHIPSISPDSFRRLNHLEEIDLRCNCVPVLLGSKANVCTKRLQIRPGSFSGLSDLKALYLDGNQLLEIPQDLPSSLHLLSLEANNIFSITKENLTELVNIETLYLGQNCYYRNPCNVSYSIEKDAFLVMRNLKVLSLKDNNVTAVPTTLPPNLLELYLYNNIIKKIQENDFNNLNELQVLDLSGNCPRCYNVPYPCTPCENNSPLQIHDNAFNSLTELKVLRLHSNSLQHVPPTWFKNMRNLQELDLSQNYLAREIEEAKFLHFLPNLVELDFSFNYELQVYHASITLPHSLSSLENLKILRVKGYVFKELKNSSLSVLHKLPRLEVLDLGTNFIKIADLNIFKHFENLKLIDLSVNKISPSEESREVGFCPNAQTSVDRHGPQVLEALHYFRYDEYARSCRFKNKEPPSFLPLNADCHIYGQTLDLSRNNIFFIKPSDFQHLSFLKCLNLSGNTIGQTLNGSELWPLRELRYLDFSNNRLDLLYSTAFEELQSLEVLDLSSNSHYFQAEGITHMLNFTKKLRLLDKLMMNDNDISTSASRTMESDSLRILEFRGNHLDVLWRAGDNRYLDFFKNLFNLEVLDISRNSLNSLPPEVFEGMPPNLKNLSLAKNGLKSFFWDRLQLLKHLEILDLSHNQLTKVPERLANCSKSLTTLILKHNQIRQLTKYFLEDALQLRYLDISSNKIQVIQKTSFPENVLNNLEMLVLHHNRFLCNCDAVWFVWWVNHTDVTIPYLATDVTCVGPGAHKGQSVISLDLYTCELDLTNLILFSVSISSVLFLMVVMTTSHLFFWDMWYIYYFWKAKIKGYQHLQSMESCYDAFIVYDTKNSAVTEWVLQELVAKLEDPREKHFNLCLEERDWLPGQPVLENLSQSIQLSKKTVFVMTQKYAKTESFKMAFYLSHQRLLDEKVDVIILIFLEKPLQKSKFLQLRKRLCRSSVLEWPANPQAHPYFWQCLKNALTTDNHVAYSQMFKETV
In words: HEK293-mouseTLR7 SEAP reporter assay (Example 8). Conditions: HEK293-mTLR7 SEAP reporter cells, 24 hrs. The procedure:
as §1, §2, §3

Bounds are passed on as bounds.

In general, EC50 refers to the midpoint of the concentration-response curve. In the case of `CCCCCNc1nc(N)nc2ccn(Cc3ccc(CN4CC5(C4)CN(C(=O)OC(C)(C)C)CCO5)cc3OC)c12` [Compound 1.7, tert-butyl 2-[[4-[[2-amino-4-(pentylamino)pyrrolo[3,2-d]pyrimidin-5-yl]methyl]-3-methoxy-phenyl]methyl]-5-oxa-2,8-diazaspiro[3.5]nonane-8-carboxylate], the 50% effective concentration (EC50) on human TLR7 was 0.1 nM; at human TLR8 it was over 5000 nM; on mouse TLR7, 6.7 nM.

In the case of `CNC1CN(Cc2ccc(Cn3ccc4nc(N)nc(NCc5nocc5C)c43)c(OC)c2)C1` [Compound 5], the EC50 on human TLR7 was 1010 nM; on human TLR8, over 5000 nM.

Take `CNC1CN(Cc2ccc(Cn3ccc4nc(N)nc(NCc5cc(C)on5)c43)c(OC)c2)C1` [Compound 6, 5-(2-methoxy-4-((3-(methylamino)azetidin-1-yl)methyl)benzyl)-N4-((5-methylisoxazol-3-yl)methyl)-5H-pyrrolo[3,2-d]pyrimidine-2,4-diamine]: the EC50 at human TLR7, at human TLR8 and at mouse TLR7 was over 5000 nM throughout.

Consider `CCCCCNc1nc(N)nc2ccn(Cc3ccc(CN4CC(N)C4)cc3OC)c12` [Compound 13, 5-(4-((3-aminoazetidin-1-yl)methyl)-2-methoxybenzyl)-N4-pentyl-5H-pyrrolo[3,2-d]pyrimidine-2,4-diamine], for which the EC50 on human TLR7 was found to be 0.5 nM; on human TLR8 it was 374 nM; at mouse TLR7 it was 2.7 nM.

On to `CCCCCNc1nc(N)nc2ccn(Cc3ccc(CN4CCC5(CCNCC5)CC4)cc3OC)c12` [compound 7], for which the EC50 at human TLR7 was 48.8 nM; at human TLR8, over 5000 nM; on mouse TLR7, 112 nM.

For the molecule `CCCCCNc1nc(N)nc2ccn(Cc3ccc(CN4CC5(CCNCC5)C4)cc3OC)c12` [compound 8], the EC50 on human TLR7 was 16.5 nM; at human TLR8 it was over 5000 nM; at mouse TLR7 it was 17.6 nM.

In the case of `CCCCCNc1nc(N)nc2ccn(Cc3ccc(CN4CC5(CNC5)C4)cc3OC)c12` [compound 9], the EC50 is 13.4 nM at human TLR7, 1140 nM on human TLR8 and 16.2 nM at mouse TLR7.

Take `CCCCCNc1nc(N)nc2ccn(Cc3ccc(CN4CC(C5CCNCC5)C4)cc3OC)c12` [compound 11]: the EC50 on human TLR7 was 92.3 nM; on human TLR8, over 5000 nM; at mouse TLR7, 222 nM.

In the case of `CCCCCNc1nc(N)nc2ccn(Cc3ccc(CN4CCC(c5nnc6n5CCNC6)CC4)cc3OC)c12` [compound 12], the EC50 at human TLR7 is 370 nM; on human TLR8, over 5000 nM.

As for `CCCCCNc1nc(N)nc2ccn(Cc3ccc(CN4CC5CCCC(C4)NC5)cc3OC)c12` (stereo not shown) [compound 14], the EC50 at human TLR7 is 108 nM; on human TLR8, over 5000 nM; at mouse TLR7, 322 nM.

Turning to `CCCCCNc1nc(N)nc2ccn(Cc3ccc(CN4CC5CCC4CN5)cc3OC)c12` (stereo not shown) [compound 15], the EC50 is 4.8 nM at human TLR7, over 5000 nM on human TLR8 and 24.6 nM at mouse TLR7.

The values are drawn from patent publication US12534465B2, “5H-pyrrolo[3,2-d]pyrimidine-2,4-diamino compounds and antibody conjugates thereof” (SUTRO BIOPHARMA, INC., priority 2019, dated 2026).
